Laboratory results reported in article PMC12286210, “Immobilization of Pleurotus eryngii Laccase via a Protein–Inorganic Hybrid for Efficient Degradation of Bisphenol A as a Potent Xenobiotic” (Journal of Xenobiotics, 2025).

Tested on: T1, PeLac (Pleurotus eryngii laccase)
T1 construct: gene ery3
Settings: free enzyme, partially purified; ABTS 0.01-2.0 mM; 25 °C; co-substrate O2

Km: 118 ± 8.9 µM
SMILES: CCn1c(=NN=c2sc3cc(S(=O)(=O)O)ccc3n2CC)sc2cc(S(=O)(=O)O)ccc21 [ABTS]
